From BigSolDB 2.1

NC(=O)N/N=C/c1ccc([N+](=O)[O-])o1
solubility (mole fraction)
Details	278.15 K	283.15 K	288.15 K	293.15 K	298.15 K	303.15 K	308.15 K	313.15 K	318.15 K	323.15 K
in DMSO	–	–	–	0.0448	0.0469	0.0493	0.053	0.0577	0.0636	0.0709
in NMP	0.0317	0.0354	0.0396	0.0457	0.0522	0.0591	0.0662	0.075	0.0853	0.0985
in ethanol	6.72e-05	8.38e-05	0.000102	0.000123	0.000149	0.000178	0.000213	0.000258	0.000303	0.000364
in isopropanol	6.89e-05	8.99e-05	0.000117	0.000138	0.000175	0.000223	0.00027	0.000331	0.00039	0.000484
in water	1.32e-05	1.66e-05	1.96e-05	2.46e-05	2.98e-05	3.66e-05	4.5e-05	5.75e-05	6.84e-05	8.47e-05
